Drawing on patent publication US20120046306A1, “Substituted Heteroaryl Spiropyrrolidine MDM2 Antagonists” (priority 2010, published 2012), this text covers IC50 for 19 molecules.

interaction between p53 and MDM2 proteins, sequence (Q00987 whole entry): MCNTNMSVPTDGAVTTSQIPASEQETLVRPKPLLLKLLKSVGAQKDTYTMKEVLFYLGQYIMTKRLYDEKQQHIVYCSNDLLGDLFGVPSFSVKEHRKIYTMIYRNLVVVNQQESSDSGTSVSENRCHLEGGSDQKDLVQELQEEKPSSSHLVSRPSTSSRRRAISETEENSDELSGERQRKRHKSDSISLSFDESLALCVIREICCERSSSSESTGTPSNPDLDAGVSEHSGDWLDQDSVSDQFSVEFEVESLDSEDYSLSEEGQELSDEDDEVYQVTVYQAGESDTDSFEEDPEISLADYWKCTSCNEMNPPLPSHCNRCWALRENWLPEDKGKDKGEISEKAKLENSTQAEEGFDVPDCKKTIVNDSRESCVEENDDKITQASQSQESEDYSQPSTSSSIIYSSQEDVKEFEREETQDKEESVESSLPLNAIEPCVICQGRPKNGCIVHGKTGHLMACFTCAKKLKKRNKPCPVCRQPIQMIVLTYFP

This test concerns the target interaction between p53 and MDM2 proteins (Homo sapiens, UniProt Q00987). The test can be described thus: HTRF assay of inhibition of p53-MDM2 interaction. The following applies: GST-MDM2 and biotinylated p53 peptide, bsa: 0.02%. It is filed as binding. As for the experimental part: The ability of the compounds to inhibit the interaction between p53 and MDM2 proteins was measured by an HTRF (homogeneous time-resolved fluorescence) assay in which recombinant GST-tagged MDM2 binds to a peptide that resembles the MDM2-interacting region of p53. Binding of GST-MDM2 protein and p53-peptide (biotinylated on its N-terminal end) is registered by the FRET (fluorescence resonance energy transfer) between Europium (Eu)-labeled anti-GST antibody and streptavidin-conjugated Allophycocyanin (APC).
Add 20 uL streptavidin-APC and Eu-anti-GST antibody mixture (6 nM Eu-anti-GST and 60 nM streptavidin-APC working solution) in TBS buffer with 0.2% BSA, shake at room temperature for 30 minutes and read using a TRF-capable plate reader at
If not specified, the reagents were purchased from Sigma Chemical Co.
With `COc1cc(OCCOC(C)=O)ccc1NC(=O)[C@@H]1N[C@@H](CC(C)(C)C)[C@@]2(C(=O)Nc3cc(Cl)ncc32)[C@H]1c1cccc(Cl)c1F` (racemic) [Example 116, rac-2-(4-((2S,3R,4S,5R)-6′-chloro-4-(3-chloro-2-fluorophenyl)-2-neopentyl-2′-oxo-1′,2′-dihydrospiro[pyrrolidine-3,3′-pyrrolo[3,2-c]pyridine]-5-ylcarboxamido)-3-methoxyphenoxy)ethyl acetate], half-maximal inhibition (IC50) required 12 nM.
For the molecule `COc1cc(C(N)=O)ccc1NC(=O)[C@@H]1N[C@@H](CC(C)(C)C)[C@@]2(C(=O)Nc3cc(Cl)cnc32)[C@H]1c1cccc(Cl)c1` (racemic) [Example 63, rac-(2S,3S,4R,5R)-N-(4-carbamoyl-2-methoxyphenyl)-6′-chloro-4-(3-chlorophenyl)-2-neopentyl-2′-oxo-1′,2′-dihydrospiro[pyrrolidine-3,3′-pyrrolo[3,2-b]pyridine]-5-carboxamide], half-maximal inhibition (IC50) was put at 14.6 nM.
Turning to `COc1cc(C(N)=O)ccc1NC(=O)[C@@H]1N[C@@H](CC(C)(C)C)[C@@]2(C(=O)Nc3cc(C)ncc32)[C@H]1c1cccc(Cl)c1F` (racemic) [Example 121, rac-(2S,3R,4S,5R)-N-(4-carbamoyl-2-methoxyphenyl)-4-(3-chloro-2-fluorophenyl)-6′-methyl-2-neopentyl-2′-oxo-1′,2′-dihydrospiro[pyrrolidine-3,3′-pyrrolo[3,2-c]pyridine]-5-carboxamide], the half-inhibitory concentration (IC50) came out at 11.8 nM.
On to `COc1cc(C(=O)O)ccc1NC(=O)[C@@H]1N[C@@H](CC(C)(C)C)[C@@]2(C(=O)Nc3cc(C)ncc32)[C@H]1c1cccc(Cl)c1F` (racemic) [Example 120, rac-4-((2S,3R,4S,5R)-4-(3-chloro-2-fluorophenyl)-6′-methyl-2-neopentyl-2′-oxo-1′,2′-dihydrospiro[pyrrolidine-3,3′-pyrrolo[3,2-c]pyridine]-5-ylcarboxamido)-3-methoxybenzoic acid], for which half-maximal inhibition (IC50) was put at 12 nM. This IC50 and that of the molecule before are within 1.5-fold of each other.
In the case of `COC(=O)c1ccc(NC(=O)[C@@H]2N[C@@H](CC(C)(C)C)[C@@]3(C(=O)Nc4ccncc43)[C@H]2c2cccc(Cl)c2F)c(OC)c1` (racemic) [Example 6, methyl rac-4-((2S,3R,4S,5R)-4-(3-chloro-2-fluorophenyl)-2-neopentyl-2′-oxo-1′,2′-dihydrospiro[pyrrolidine-3,3′-pyrrolo[3,2-c]pyridine]-5-ylcarboxamido)-3-methoxybenzoate] it was 32.4 nM.
Molecule `COC(=O)c1ccc(NC(=O)[C@@H]2N[C@@H](CC(C)(C)C)[C@@]3(C(=O)Nc4nc(Cl)ccc43)[C@H]2c2cccc(Cl)c2F)c(OC)c1` (racemic) [Example 35, methyl rac-4-((2S,3R,4S,5R)-6′-chloro-4-(3-chloro-2-fluorophenyl)-2-neopentyl-2′-oxo-1′,2′-dihydrospiro[pyrrolidine-3,3′-pyrrolo[2,3-b]pyridine]-5-ylcarboxamido)-3-methoxybenzoate] gave an IC50 of 14.5 nM. This IC50 is about 2.2-fold lower than that of the molecule before.
In turn, `COc1cc(C(=O)O)ccc1NC(=O)[C@@H]1N[C@@H](CC(C)(C)C)[C@@]2(C(=O)Nc3c(Cl)ccnc32)[C@H]1c1cccc(Cl)c1F` (racemic) [Example 124, rac-4-((2S,3S,4S,5R)-7′-chloro-4-(3-chloro-2-fluorophenyl)-2-neopentyl-2′-oxo-1′,2′-dihydrospiro[pyrrolidine-3,3′-pyrrolo[3,2-b]pyridine]-5-ylcarboxamido)-3-methoxybenzoic acid] registered an IC50 of 1010 nM.
Consider `COC(=O)c1ccc(NC(=O)[C@@H]2N[C@@H](CC(C)(C)C)[C@@]3(C(=O)Nc4cc(Cl)sc43)[C@H]2c2cccc(Cl)c2F)c(OC)c1` (racemic) [Example 96, methyl rac-4-((2S,3R,4R,5R)-2′-chloro-4-(3-chloro-2-fluorophenyl)-2-neopentyl-5′-oxo-4′,5′-dihydrospiro[pyrrolidine-3,6′-thieno[3,2-b]pyrrole]-5-ylcarboxamido)-3-methoxybenzoate], for which the IC50 stood at 22.7 nM.
Molecule `COc1cc(OCCO)ccc1NC(=O)[C@@H]1N[C@@H](CC(C)(C)C)[C@@]2(C(=O)Nc3cc(Cl)ncc32)[C@H]1c1cccc(Cl)c1F` (racemic) [Example 117, rac-(2S,3R,4S,5R)-6′-chloro-4-(3-chloro-2-fluorophenyl)-N-(4-(2-hydroxyethoxy)-2-methoxyphenyl)-2-neopentyl-2′-oxo-1′,2′-dihydrospiro[pyrrolidine-3,3′-pyrrolo[3,2-c]pyridine]-5-carboxamide] had an IC50 of 14 nM.
`COC(=O)c1ccc(NC(=O)[C@@H]2N[C@@H](CC(C)(C)C)[C@@]3(C(=O)Nc4cc(C)ncc43)[C@H]2c2cccc(Cl)c2F)c(OC)c1` (racemic) [Example 119, methyl rac-4-((2S,3R,4S,5R)-4-(3-chloro-2-fluorophenyl)-6′-methyl-2-neopentyl-2′-oxo-1′,2′-dihydrospiro[pyrrolidine-3,3′-pyrrolo[3,2-c]pyridine]-5-ylcarboxamido)-3-methoxybenzoate]: the IC50 was 11.6 nM.
In the case of `COc1cc2c(cn1)[C@@]1(C(=O)N2)[C@H](CC(C)(C)C)N[C@@H](C(=O)Nc2ccc(C(=O)O)cc2OC)[C@@H]1c1cccc(Cl)c1F` (racemic) [Example 111, rac-4-((2S,3R,4S,5R)-4-(3-chloro-2-fluorophenyl)-6′-methoxy-2-neopentyl-2′-oxo-1′,2′-dihydrospiro[pyrrolidine-3,3′-pyrrolo[3,2-c]pyridine]-5-ylcarboxamido)-3-methoxybenzoic acid], the IC50 is 7 nM. This IC50 lies about 1.7-fold lower than the previous one.
As for `COc1cc(OCCO)ccc1NC(=O)[C@@H]1N[C@@H](CC(C)(C)C)[C@@]2(C(=O)Nc3nc(Cl)ncc32)[C@H]1c1cccc(Cl)c1F` (racemic) [Example 89, rac-(2S,3R,4S,5R)-2′-chloro-4-(3-chloro-2-fluorophenyl)-N-[4-(2-hydroxyethoxy)-2-methoxyphenyl]-2-neopentyl-6′-oxo-6′,7′-dihydrospiro[pyrrolidine-3,5′-pyrrolo[2,3-d]pyrimidine]-5-carboxamide], the IC50 came out at 11.7 nM.
Turning to `COc1cc(OCCO)ccc1NC(=O)[C@@H]1N[C@@H](CC(C)(C)C)[C@@]2(C(=O)Nc3cc(Cl)cnc32)[C@H]1c1cccc(Cl)c1F` [Example 75, (2S,3S,4S,5R)-6′-chloro-4-(3-chloro-2-fluorophenyl)-N-(4-(2-hydroxyethoxy)-2-methoxyphenyl)-2-neopentyl-2′-oxo-1′,2′-dihydrospiro[pyrrolidine-3,3′-pyrrolo[3,2-b]pyridine]-5-carboxamide], the IC50 worked out at 6.4 nM.
With `COc1cc(C(N)=O)ccc1NC(=O)[C@@H]1N[C@@H](CC(C)(C)C)[C@@]2(C(=O)Nc3cc(Cl)cnc32)[C@H]1c1cccc(Br)c1F` (racemic) [Example 69, rac-(2S,3S,4S,5R)-4-(3-bromo-2-fluorophenyl)-N-(4-carbamoyl-2-methoxyphenyl)-6′-chloro-2-neopentyl-2′-oxo-1′,2′-dihydrospiro[pyrrolidine-3,3′-pyrrolo[3,2b]pyridine]-5-carboxamide], it took 12.9 nM to reach half-maximal inhibition (IC50).
`COC(=O)c1ccc(NC(=O)[C@@H]2N[C@@H](CC(C)(C)C)[C@@]3(C(=O)Nc4cc(F)cnc43)[C@H]2c2cccc(Cl)c2F)c(OC)c1` (racemic) [Example 83, methyl rac-4-((2S,3S,4S,5R)-4-(3-chloro-2-fluorophenyl)-6′-fluoro-2-neopentyl-2′-oxo-1′,2′-dihydrospiro[pyrrolidine-3,3′-pyrrolo[3,2-b]pyridine]-5-ylcarboxamido)-3-methoxybenzoate] showed an IC50 of 19.5 nM.
`COC(=O)c1ccc(NC(=O)[C@@H]2N[C@@H](CC(C)(C)C)[C@@]3(C(=O)Nc4cc(Cl)cnc43)[C@H]2c2cccc(Br)c2F)c(OC)c1` (racemic) [Example 66, methyl rac-4-{(2S,3R,4S,5R)-4-(3-bromo-2-fluorophenyl)-6′-chloro-2-neopentyl-2′-oxo-1′,2′-dihydrospiro[pyrrolidine-3,3′-pyrrolo[3,2-b]pyridine]-5-ylcarboxamido}-3-methoxybenzoate]: it took 1830 nM to reach half-maximal inhibition (IC50).
Take `COc1cc(C(=O)O)ccc1NC(=O)[C@@H]1N[C@@H](CC(C)(C)C)[C@@]2(C(=O)Nc3cc(O)ncc32)[C@H]1c1cccc(Cl)c1F` (racemic) [Example 114, rac-4-((2S,3R,4S,5R)-4-(3-chloro-2-fluorophenyl)-6′-hydroxy-2-neopentyl-2′-oxo-1′,2′-dihydrospiro[pyrrolidine-3,3′-pyrrolo[3,2-c]pyridine]-5-ylcarboxamido)-3-methoxybenzoic acid]: the IC50 was above 10000 nM.
`COC(=O)c1ccc(NC(=O)[C@@H]2N[C@@H](CC(C)(C)C)[C@@]3(C(=O)Nc4cc(O)ncc43)[C@H]2c2cccc(Cl)c2F)c(OC)c1` (racemic) [Example 113, methyl rac-4-((2S,3R,4S,5R)-4-(3-chloro-2-fluorophenyl)-6′-hydroxy-2-neopentyl-2′-oxo-1′,2′-dihydrospiro[pyrrolidine-3,3′-pyrrolo[3,2-c]pyridine]-5-ylcarboxamido)-3-methoxybenzoate] had an IC50 above 10000 nM.
In the case of `COC(=O)c1ccc(NC(=O)[C@@H]2N[C@@H](CC(C)(C)C)[C@@]3(C(=O)Nc4cc(OC)ncc43)[C@H]2c2cccc(Cl)c2F)c(OC)c1` (racemic) [Example 110, methyl rac-4-((2S,3R,4S,5R)-4-(3-chloro-2-fluorophenyl)-6′-methoxy-2-neopentyl-2′-oxo-1′,2′-dihydrospiro[pyrrolidine-3,3′-pyrrolo[3,2-c]pyridine]-5-ylcarboxamido)-3-methoxybenzoate] it was 13.6 nM.
